Data taken from the supplement of paper PMC7017272.
± gives the standard deviation of the averaged measurements.

Key:
UT-SCC-24A [1] = experiment: maximal % inhibition of viability relative to DMSO; higher = stronger effect; conditions: treatment time: 3 days
Method: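 HNSCC cell lines (500 cells/well, 384-well) were cultured on plastic, on top of (2D) or embedded (3D) in Matrigel or human leiomyoma matrix Myogel (500 ug/mL; Myogel 3D mixed with rat collagen I). Cells were treated for 3 days with 5 ten-fold concentrations of each drug, and viability was read by CellTiter-Glo. Viability was normalised to DMSO (0% inhibition) and 100 uM benzethonium chloride (100% inhibition) controls and fitted with the FIMM DSRT pipeline to give IC50 (nM), maximal % inhibition and the drug sensitivity score (DSS). Suffixes _1/_2/_3 on drug names are replicates.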

UT-SCC-24A [2] = experiment: drug sensitivity score (DSS); higher = more sensitive; conditions: treatment time: 3 days
Method: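 HNSCC cell lines (500 cells/well, 384-well) were cultured on plastic, on top of (2D) or embedded (3D) in Matrigel or human leiomyoma matrix Myogel (500 ug/mL; Myogel 3D mixed with rat collagen I). Cells were treated for 3 days with 5 ten-fold concentrations of each drug, and viability was read by CellTiter-Glo. Suffixes _1/_2/_3 on drug names are replicates.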

UT-SCC-106A [3] = experiment: relative IC50 (midpoint of the fitted curve; maximal inhibition may be below 50%); higher = less potent; conditions: treatment time: 3 days
Summary of the method: (§1)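 HPV-negative HNSCC cell lines were seeded at 500 cells/well in 384-well plates on plastic, on Matrigel- or Myogel-coated wells (500 µg/mL), or embedded in Matrigel or Myogel plus rat collagen I. Compounds were given at five 10-fold concentrations for 3 days, and viability was read by CellTiter-Glo 2.0 luminescence. Signals were normalised to vehicle (0.1% DMSO) and cell-killing control wells. Percent-inhibition dose–response curves were fitted in the FIMM pipeline to derive IC50, maximal inhibition and drug sensitivity score.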

UT-SCC-8 [4] = experiment: as above; conditions: treatment time: 3 days
Summary of the method: as §1

UT-SCC-28 [5] = experiment: as above; conditions: culture condition: embedded in Matrigel; treatment time: 3 days
Summary of the method: as §1

UT-SCC-24B [6] = experiment: as above; conditions: treatment time: 3 days
Summary of the method: as §1

UT-SCC-40 [7] = experiment: as above; conditions: treatment time: 3 days
Summary of the method: as §1

UT-SCC-106A [8] = experiment: maximal % inhibition of viability relative to DMSO; higher = stronger effect; conditions: treatment time: 3 days
Method: (§2)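 HNSCC cell lines (500 cells/well, 384-well) were cultured on plastic, on top of (2D) or embedded (3D) in Matrigel or human leiomyoma matrix Myogel (500 ug/mL; Myogel 3D mixed with rat collagen I). Cells were treated for 3 days with 5 ten-fold concentrations of each drug, and viability was read by CellTiter-Glo. Viability was normalised to DMSO and benzethonium chloride controls and fitted with the FIMM DSRT pipeline to give IC50 (nM), maximal % inhibition and DSS. Suffixes _1/_2/_3 are replicates. Only inhibition-mode (IC50) fits are kept.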

UT-SCC-8 [9] = experiment: as above; conditions: treatment time: 3 days
Method: as §2

UT-SCC-42A = experiment: as above; conditions: treatment time: 3 days
Method: as §2

UT-SCC-14 = experiment: as above; conditions: treatment time: 3 days
Method: as §2

UT-SCC-44 = experiment: as above; conditions: treatment time: 3 days
Method: as §2

UT-SCC-81 = experiment: as above; conditions: treatment time: 3 days
Method: as §2

UT-SCC-28 [10] = experiment: as above; conditions: treatment time: 3 days
Method: as §2

UT-SCC-42B = experiment: as above; conditions: treatment time: 3 days
Method: as §2

UT-SCC-73 = experiment: as above; conditions: treatment time: 3 days
Method: as §2

UT-SCC-24B [11] = experiment: as above; conditions: treatment time: 3 days
Method: as §2

UT-SCC-40 [12] = experiment: as above; conditions: treatment time: 3 days
Method: as §2

[13] = culture condition: embedded in Matrigel
[14] = culture condition: embedded in Myogel + collagen I
[15] = culture condition: on top of Matrigel
[16] = culture condition: on top of Myogel
[17] = culture condition: plastic 2D (no matrix)

Cn1cnc2c(F)c(Nc3ccc(Br)cc3Cl)c(C(=O)NOCCO)cc21 [Selumetinib]
maximal % inhibition of viability (UT-SCC-24A [1]; [13]): 81.7 ± 2.1%
maximal % inhibition of viability (UT-SCC-24A [1]; [14]): 59.2 ± 2.4%
maximal % inhibition of viability (UT-SCC-24A [1]; [15]): 76.7 ± 1.4%
maximal % inhibition of viability (UT-SCC-24A [1]; [16]): 38.4 ± 3%
maximal % inhibition of viability (UT-SCC-24A [1]; [17]): 70.2 ± 7.2%
drug sensitivity score (UT-SCC-24A [2]; [13]): 20.7 ± 4.2 DSS
drug sensitivity score (UT-SCC-24A [2]; [14]): 16.4 ± 1.8 DSS
drug sensitivity score (UT-SCC-24A [2]; [15]): 19.4 ± 3.9 DSS
drug sensitivity score (UT-SCC-24A [2]; [16]): 8.63 ± 1.6 DSS
drug sensitivity score (UT-SCC-24A [2]; [17]): 17.9 ± 3.7 DSS
relative IC50 (UT-SCC-106A [3]; [13]): 56.8 nM
relative IC50 (UT-SCC-106A [3]; [17]): 56.3 nM
relative IC50 (UT-SCC-8 [4]; [13]): 163 nM
relative IC50 (UT-SCC-8 [4]; [15]): 176 nM
relative IC50 (UT-SCC-8 [4]; [16]): 139 nM
relative IC50 (UT-SCC-28 [5]): 79.9 nM
relative IC50 (UT-SCC-24B [6]; [13]): 169 nM
relative IC50 (UT-SCC-24B [6]; [14]): 165 nM
relative IC50 (UT-SCC-24B [6]; [15]): 173 nM
relative IC50 (UT-SCC-24B [6]; [16]): 177 nM
relative IC50 (UT-SCC-24B [6]; [17]): 117 nM
relative IC50 (UT-SCC-40 [7]; [13]): 50.9 nM
relative IC50 (UT-SCC-40 [7]; [14]): 41.5 nM
relative IC50 (UT-SCC-40 [7]; [15]): 61 nM
maximal % inhibition of viability (UT-SCC-106A [8]; [13]): 53.2 ± 6.3%
maximal % inhibition of viability (UT-SCC-106A [8]; [14]): 18.7 ± 4.1%
maximal % inhibition of viability (UT-SCC-106A [8]; [15]): 58.9 ± 5.3%
maximal % inhibition of viability (UT-SCC-106A [8]; [16]): 15.5 ± 4.6%
maximal % inhibition of viability (UT-SCC-106A [8]; [17]): 58.1 ± 4.1%
maximal % inhibition of viability (UT-SCC-8 [9]; [13]): 49.4 ± 8.9%
maximal % inhibition of viability (UT-SCC-8 [9]; [14]): 33.9 ± 6.9%
maximal % inhibition of viability (UT-SCC-8 [9]; [15]): 47.1 ± 5.1%
maximal % inhibition of viability (UT-SCC-8 [9]; [16]): 50.4 ± 5.8%
maximal % inhibition of viability (UT-SCC-8 [9]; [17]): 53.4 ± 9.7%
maximal % inhibition of viability (UT-SCC-42A; [13]): 54.2 ± 7.8%
maximal % inhibition of viability (UT-SCC-42A; [14]): 24.9 ± 13%
maximal % inhibition of viability (UT-SCC-42A; [15]): 55.1 ± 8.1%
maximal % inhibition of viability (UT-SCC-42A; [16]): 40.7 ± 4.6%
maximal % inhibition of viability (UT-SCC-42A; [17]): 50.4 ± 6.9%
maximal % inhibition of viability (UT-SCC-14; [13]): 31 ± 16%
maximal % inhibition of viability (UT-SCC-14; [14]): 26.1 ± 7.3%
maximal % inhibition of viability (UT-SCC-14; [15]): 38.6 ± 9%
maximal % inhibition of viability (UT-SCC-14; [16]): 32.2 ± 8.8%
maximal % inhibition of viability (UT-SCC-14; [17]): 35.5 ± 14%
maximal % inhibition of viability (UT-SCC-44; [13]): 66.5 ± 25%
maximal % inhibition of viability (UT-SCC-44; [14]): 42.2 ± 0.7%
maximal % inhibition of viability (UT-SCC-44; [15]): 51.6 ± 3.1%
maximal % inhibition of viability (UT-SCC-44; [16]): 41.2 ± 5.3%
maximal % inhibition of viability (UT-SCC-44; [17]): 39.8 ± 1.5%
maximal % inhibition of viability (UT-SCC-81; [13]): 87.8 ± 2%
maximal % inhibition of viability (UT-SCC-81; [14]): 39.9 ± 7.8%
maximal % inhibition of viability (UT-SCC-81; [15]): 82.63 ± 0.81%
maximal % inhibition of viability (UT-SCC-81; [16]): 54.2 ± 2.4%
maximal % inhibition of viability (UT-SCC-81; [17]): 68.7 ± 4.2%
maximal % inhibition of viability (UT-SCC-28 [10]; [13]): 38.9 ± 18%
maximal % inhibition of viability (UT-SCC-28 [10]; [14]): 39.8 ± 4.3%
maximal % inhibition of viability (UT-SCC-28 [10]; [15]): 35.8 ± 9.2%
maximal % inhibition of viability (UT-SCC-28 [10]; [17]): 29.4 ± 9.5%
maximal % inhibition of viability (UT-SCC-42B; [13]): 67.7 ± 7.4%
maximal % inhibition of viability (UT-SCC-42B; [15]): 46.9 ± 14%
maximal % inhibition of viability (UT-SCC-42B; [16]): 17.3 ± 1.7%
maximal % inhibition of viability (UT-SCC-42B; [17]): 25.6 ± 8.1%
maximal % inhibition of viability (UT-SCC-73; [13]): 81.9 ± 1.5%
maximal % inhibition of viability (UT-SCC-73; [14]): 54.4 ± 8.1%
maximal % inhibition of viability (UT-SCC-73; [15]): 80 ± 1.5%
maximal % inhibition of viability (UT-SCC-73; [16]): 65.4 ± 1.1%
maximal % inhibition of viability (UT-SCC-73; [17]): 75.3 ± 1.2%
maximal % inhibition of viability (UT-SCC-24B [11]; [13]): 87.67 ± 0.5%
maximal % inhibition of viability (UT-SCC-24B [11]; [14]): 84 ± 4.5%
maximal % inhibition of viability (UT-SCC-24B [11]; [15]): 86.67 ± 0.21%
maximal % inhibition of viability (UT-SCC-24B [11]; [16]): 82.5 ± 3.8%
maximal % inhibition of viability (UT-SCC-24B [11]; [17]): 89.73 ± 0.6%
maximal % inhibition of viability (UT-SCC-40 [12]; [13]): 79.8 ± 1.3%
maximal % inhibition of viability (UT-SCC-40 [12]; [14]): 62.5 ± 8%
maximal % inhibition of viability (UT-SCC-40 [12]; [15]): 75.8 ± 3.5%
maximal % inhibition of viability (UT-SCC-40 [12]; [16]): 52.1 ± 3.1%
maximal % inhibition of viability (UT-SCC-40 [12]; [17]): 56.2 ± 5.7%
